According to patent US20230111310A1, “CARBOXYLIC ACID DERIVATIVE-SUBSTITUTED IMINO ARYL COMPOUND, PREPARATION METHOD THEREFOR, HERBICIDAL COMPOSITION AND USE THEREOF” (Qingdao Kingagroot Chemical Compound Co., Ltd., priority 2020, published 2023):

What was measured:
Test in all cases: Weeding effect in post-emergence stage
Format in all cases: in vivo
Settings in all cases: level of fresh weight growth control rate
Digitaria sanguinalis = system: Digitaria sanguinalis
How it was run: (§1)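 Seeds are sown in soil-filled pots under 0.5-2 cm soil and grown 2 weeks in greenhouse. Plants at 2-3 leaves are sprayed with compound (acetone, Tween 80, 1.5 liter/ha methyl oleate EC, water) at 7.5 to 500 g/ha. Damage is rated 3 weeks later, averaging three repeats.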

Eleusine indica = system: Eleusine indica
How it was run: as §1

Setaria viridis = system: Setaria viridis
How it was run: as §1

Alopecurus japonicus = system: Alopecurus japonicus
How it was run: as §1

Abutilon theophrasti = system: Abutilon theophrasti
How it was run: as §1

Echinochloa crusgalli = system: Echinochloa crusgalli
How it was run: as §1

C[C@@H](O/N=C/c1cc(-n2c(=O)cc(C(F)(F)F)n(C)c2=O)c(F)cc1Cl)C(=O)OCC(C)(F)F [220(R)]
Weeding effect in post-emergence stage, Digitaria sanguinalis (Digitaria sanguinalis; Dose 15 g/ha): 5 (Level 5: growth control rate is above 85%) | Weeding effect in post-emergence stage, Eleusine indica (Eleusine indica; Dose 15 g/ha): 5 (Level 5: growth control rate is above 85%) | Weeding effect in post-emergence stage, Setaria viridis (Setaria viridis; Dose 15 g/ha): 5 (Level 5: growth control rate is above 85%) | Weeding effect in post-emergence stage, Alopecurus japonicus (Alopecurus japonicus; Dose 15 g/ha): 5 (Level 5: growth control rate is above 85%) | Weeding effect in post-emergence stage, Abutilon theophrasti (Abutilon theophrasti; Dose 15 g/ha): 5 (Level 5: growth control rate is above 85%) | Weeding effect in post-emergence stage, Echinochloa crusgalli (Echinochloa crusgalli; Dose 15 g/ha): 5 (Level 5: growth control rate is above 85%)

C[C@@H](O/N=C/c1cc(-n2c(=O)cc(C(F)(F)F)n(C)c2=O)c(F)cc1Cl)C(=O)OC/C=C/Cl [225(R)]
Weeding effect in post-emergence stage, Digitaria sanguinalis (Digitaria sanguinalis; Dose 15 g/ha): 5 (Level 5: growth control rate is above 85%) | Weeding effect in post-emergence stage, Eleusine indica (Eleusine indica; Dose 15 g/ha): 5 (Level 5: growth control rate is above 85%) | Weeding effect in post-emergence stage, Setaria viridis (Setaria viridis; Dose 15 g/ha): 5 (Level 5: growth control rate is above 85%) | Weeding effect in post-emergence stage, Alopecurus japonicus (Alopecurus japonicus; Dose 15 g/ha): 5 (Level 5: growth control rate is above 85%) | Weeding effect in post-emergence stage, Abutilon theophrasti (Abutilon theophrasti; Dose 15 g/ha): 5 (Level 5: growth control rate is above 85%) | Weeding effect in post-emergence stage, Echinochloa crusgalli (Echinochloa crusgalli; Dose 15 g/ha): 5 (Level 5: growth control rate is above 85%)

CC(O/N=C/c1cc(-n2c(=O)cc(C(F)(F)F)n(C)c2=O)c(F)cc1Cl)C(=O)O/N=C/c1ccccc1 (stereo not drawn) [Compound 255]
Weeding effect in post-emergence stage, Digitaria sanguinalis (Digitaria sanguinalis; Dose 30 g/ha): 5 (Level 5: growth control rate is above 85%) | Weeding effect in post-emergence stage, Eleusine indica (Eleusine indica; Dose 30 g/ha): 5 (Level 5: growth control rate is above 85%) | Weeding effect in post-emergence stage, Setaria viridis (Setaria viridis; Dose 30 g/ha): 5 (Level 5: growth control rate is above 85%) | Weeding effect in post-emergence stage, Alopecurus japonicus (Alopecurus japonicus; Dose 30 g/ha): 5 (Level 5: growth control rate is above 85%) | Weeding effect in post-emergence stage, Abutilon theophrasti (Abutilon theophrasti; Dose 30 g/ha): 5 (Level 5: growth control rate is above 85%) | Weeding effect in post-emergence stage, Echinochloa crusgalli (Echinochloa crusgalli; Dose 30 g/ha): 5 (Level 5: growth control rate is above 85%)

CC(C)OC(=O)C(C)O/N=C/c1cc(-n2c(=O)cc(C(F)(F)F)n(C)c2=O)c(F)cc1Cl (racemic) [Compound 199]
Weeding effect in post-emergence stage, Digitaria sanguinalis (Digitaria sanguinalis; Dose 15 g/ha): 5 (Level 5: growth control rate is above 85%) | Weeding effect in post-emergence stage, Eleusine indica (Eleusine indica; Dose 15 g/ha): 5 (Level 5: growth control rate is above 85%) | Weeding effect in post-emergence stage, Setaria viridis (Setaria viridis; Dose 15 g/ha): 5 (Level 5: growth control rate is above 85%) | Weeding effect in post-emergence stage, Alopecurus japonicus (Alopecurus japonicus; Dose 15 g/ha): 5 (Level 5: growth control rate is above 85%) | Weeding effect in post-emergence stage, Abutilon theophrasti (Abutilon theophrasti; Dose 15 g/ha): 5 (Level 5: growth control rate is above 85%) | Weeding effect in post-emergence stage, Echinochloa crusgalli (Echinochloa crusgalli; Dose 15 g/ha): 5 (Level 5: growth control rate is above 85%)

C[C@@H](O/N=C/c1cc(-n2c(=O)n(C)c(=S)n(C)c2=O)c(F)cc1Cl)C(=O)OCc1ccco1 [26(R)]
Weeding effect in post-emergence stage, Digitaria sanguinalis (Digitaria sanguinalis; Dose 15 g/ha): 5 (Level 5: growth control rate is above 85%) | Weeding effect in post-emergence stage, Eleusine indica (Eleusine indica; Dose 15 g/ha): 5 (Level 5: growth control rate is above 85%) | Weeding effect in post-emergence stage, Setaria viridis (Setaria viridis; Dose 15 g/ha): 5 (Level 5: growth control rate is above 85%) | Weeding effect in post-emergence stage, Alopecurus japonicus (Alopecurus japonicus; Dose 15 g/ha): 5 (Level 5: growth control rate is above 85%) | Weeding effect in post-emergence stage, Abutilon theophrasti (Abutilon theophrasti; Dose 15 g/ha): 5 (Level 5: growth control rate is above 85%) | Weeding effect in post-emergence stage, Echinochloa crusgalli (Echinochloa crusgalli; Dose 15 g/ha): 5 (Level 5: growth control rate is above 85%)

COCC(O/N=C/c1cc(-n2c(=O)cc(C(F)(F)F)n(C)c2=O)c(F)cc1Cl)C(=O)OC (stereo not drawn) [Compound 333]
Weeding effect in post-emergence stage, Digitaria sanguinalis (Digitaria sanguinalis; Dose 15 g/ha): 5 (Level 5: growth control rate is above 85%) | Weeding effect in post-emergence stage, Eleusine indica (Eleusine indica; Dose 15 g/ha): 5 (Level 5: growth control rate is above 85%) | Weeding effect in post-emergence stage, Setaria viridis (Setaria viridis; Dose 15 g/ha): 5 (Level 5: growth control rate is above 85%) | Weeding effect in post-emergence stage, Alopecurus japonicus (Alopecurus japonicus; Dose 15 g/ha): 5 (Level 5: growth control rate is above 85%) | Weeding effect in post-emergence stage, Abutilon theophrasti (Abutilon theophrasti; Dose 15 g/ha): 5 (Level 5: growth control rate is above 85%) | Weeding effect in post-emergence stage, Echinochloa crusgalli (Echinochloa crusgalli; Dose 15 g/ha): 5 (Level 5: growth control rate is above 85%)

COC(=O)C(C)O/N=C/c1cc(-n2c(=O)n(C)c(=S)n(C)c2=O)c(F)cc1C#N (racemic) [Compound 87]
Weeding effect in post-emergence stage, Digitaria sanguinalis (Digitaria sanguinalis; Dose 15 g/ha): 5 (Level 5: growth control rate is above 85%) | Weeding effect in post-emergence stage, Eleusine indica (Eleusine indica; Dose 15 g/ha): 5 (Level 5: growth control rate is above 85%) | Weeding effect in post-emergence stage, Setaria viridis (Setaria viridis; Dose 15 g/ha): 5 (Level 5: growth control rate is above 85%) | Weeding effect in post-emergence stage, Alopecurus japonicus (Alopecurus japonicus; Dose 15 g/ha): 5 (Level 5: growth control rate is above 85%) | Weeding effect in post-emergence stage, Abutilon theophrasti (Abutilon theophrasti; Dose 15 g/ha): 5 (Level 5: growth control rate is above 85%) | Weeding effect in post-emergence stage, Echinochloa crusgalli (Echinochloa crusgalli; Dose 15 g/ha): 5 (Level 5: growth control rate is above 85%)

C[C@@H](O/N=C/c1cc(-n2c(=O)cc(C(F)(F)F)n(C)c2=O)c(F)cc1Cl)C(=O)OCC1OCCO1 [266(R)]
Weeding effect in post-emergence stage, Digitaria sanguinalis (Digitaria sanguinalis; Dose 30 g/ha): 5 (Level 5: growth control rate is above 85%) | Weeding effect in post-emergence stage, Eleusine indica (Eleusine indica; Dose 30 g/ha): 5 (Level 5: growth control rate is above 85%) | Weeding effect in post-emergence stage, Setaria viridis (Setaria viridis; Dose 30 g/ha): 5 (Level 5: growth control rate is above 85%) | Weeding effect in post-emergence stage, Alopecurus japonicus (Alopecurus japonicus; Dose 30 g/ha): 5 (Level 5: growth control rate is above 85%) | Weeding effect in post-emergence stage, Abutilon theophrasti (Abutilon theophrasti; Dose 30 g/ha): 5 (Level 5: growth control rate is above 85%) | Weeding effect in post-emergence stage, Echinochloa crusgalli (Echinochloa crusgalli; Dose 30 g/ha): 5 (Level 5: growth control rate is above 85%)
